# Measured values from patent US20220323614A1, “KRAS-SPECIFIC CYCLIC PEPTIDES, COMPOSITIONS, AND METHODS OF USING AND MAKING” (Indi Molecular, Inc., priority 2021, published 2022).
# Where two headings read alike, the source gives them in different places. Where a SMILES comes first, the peptide text is derived from it. Bridges are numbered along the chain shown (N, C = ends). Triazole bridges read from a SMILES are 1,4-linked. Where no end group is shown, it is not given here. [ ]: non-standard residue; d: D form. The star is where a group is joined. Phe(4-guanidino) = N=C(N)Nc1ccc(C[C@H](N)C(=O)O)cc1; dLys(N3) = [N-]=[N+]=NCCCC[C@@H](N)C(=O)O; dPhe(4-Cl) = N[C@H](Cc1ccc(Cl)cc1)C(=O)O; Lys(N3) = [N-]=[N+]=NCCCC[C@H](N)C(=O)O; Morpholinoacetyl = O=C(CN1CCOCC1)*; Palmitoyl = CCCCCCCCCCCCCCCC(=O)*; dPra = C#CC[C@@H](N)C(=O)O; Pra = C#CC[C@H](N)C(=O)O
# Legend:
# pERK in AsPC-1 cells = assay: pERK levels in AsPC-1 cells, Western blot normalized to tubulin (pERK_G12D); format: cell-based; conditions: FIG. 3, incubated for 12 hours
# Procedure: FIG. 3 is a graph of pERK levels measured in BxPC-3 cells (first eight bars) and AsPC-1 cells (last eight bars) in the presence of different ligands or controls. For each cell type, the graph bars are, from left to right: cell only, DMSO 1.25%, BI-2852, KRpep-2d, NH2-wkyf (SEQ ID NO:46), Ac-wkyf (SEQ ID NO:46), Pal-wkyf (SEQ ID NO:46), Ac-wkyf-Lys(Pal) (SEQ ID NO:46). The levels of pERK are normalized to tubulin. The cells were grown overnight, treated with the ligands, incubated for 12 hours, lysed, gel electrophoresed, and Western blotted. Phosphorylation of ERK is a KRAS-dependent signaling target. […] BI-2852 and Krpep-2d are two positive controls developed by Boehringer Ingelheim and Takeda.
# FIG. 5 is a graph of pERK inhibition in BxPC-3 cells (first eight bars) and AsPC-1 cells (last eight bars) in the presence of the substituted ligands of FIG. 3. For each cell type, the graph bars are, from left to right: DMSO 0.5%, KRpep-2d, Ac-wkyf-Lys(Pal) (SEQ ID NO:46), Ac-w(Dab)yf-Lys(Pal), Ac-wk(4-Br-f)f-Lys(Pal), Ac-wky(4-Br-f)-Lys(Pal), Ac-wky(2-Nal)-Lys(Pal), wkyf (SEQ ID NO:46).
# Tables 15A-15E provide a summary of the activity and effects of various of the disclosed wkyf-based cyclic peptides. […] MTT_G12D used AsPc-1 at 5 μM. MTT_WT used BxPC-3 at 5 μM. pERK_G12D used AsPC-1 at 4 μM for 12 hours. pERK_WT used BxPC-3 at 4 μM for 12 hours.
# [1] = system: AsPC-1 (G12D) and BxPC-3 (WT); assay: spheroid proliferation assay using CellTiter-Glo Assay; format: cell-based
# Procedure: FIGS. 2A-2B are graphs of spheroid proliferation assay of AsPC-1 (G12D) and BxPC-3 (WT) using CellTiter-Glo Assay. […] The ligand assayed was Ac-wkyf-Lys(Pal) (SEQ ID NO:46). BxPC-3 and AxPC-1 were cultured as spheroids to compare the cell viability to that observed under adherent conditions. […] These conditions more closely parallel the tumor microenvironment.
# [2] = mouse pharmacokinetics of Indi-199 by IV, IP and PO; format: in vivo; conditions: for half-life: read-out: T½ (converted)
# Source text: FIG. 14 is a graph of mouse pharmacokinetics of Indi-199, an example of the disclosed cyclic peptides, by different administration routes (IV, IP, and PO).
# [3] = tolerability of Indi-199 in PBS; format: in vivo, mouse; conditions: simple formulation (PBS)
# [4] = system: AsPC1 (G12D mutant) cell line, BxPC3 (wild type), and SW 1990 (G12D mutant); conditions: confocal microscopy, Streptavidin-phycoerythrin (PE) visualization
# Procedure: A biotinylated KRAS(G12D) targeted cyclic peptide and an equivalent agent with membrane targeting capability were tested for membrane association using confocal microscopy. Binding to AsPC1 (G12D mutant) cell line, BxPC3 (wild type), and SW 1990 (G12D mutant) were compared.
# KRAS (G12D) = target: T1, KRAS (G12D) (Homo sapiens, UniProt P01116, G12D); assay: Western blot of KRAS (G12D) levels in pancreatic cell lysate; format: cell-based; conditions: pancreatic cancer cells incubated with the peptide
# T1 construct: decreasing or depleting levels of KRAS (G12D) in pancreatic cancer cells; endogenous in cells
# Source text: The disclosed cyclic peptides can be used, for example, in methods for inhibiting the KRAS (G12D) oncoprotein. Such methods can include treating cancer cells having the KRAS (G12D) mutation. […] In some forms, a cyclic peptide of Formula I can be used to inhibit KRAS (G12D) expressed in any cancer cell. For example, the KRAS (G12D) oncoprotein has been identified in pancreatic, colorectal, lung, biliary tract, and ovarian cancer cells.
# [5] = in vivo, mouse, 20 mg/kg IP, 4 mg/mL in PBS
# [6] = in vivo, mouse, 20 mg/kg IV bolus, 4 mg/mL in PBS
# [7] = in vivo, mouse, 50 mg/kg PO, 5 mg/mL in PBS
compound,measurement,setting,value
CCCCCCCCCCCCCCCC(=O)NCCCC[C@@H](NC(=O)[C@H]1CCCCn2cc(nn2)C[C@@H](NC(C)=O)C(=O)N[C@@H](Cc2c[nH]c3ccccc23)C(=O)N[C@@H](CCCCN)C(=O)N[C@@H](Cc2ccc(O)cc2)C(=O)N[C@@H](Cc2ccccc2)C(=O)N1)C(N)=O [Ac-wkyf-Lys(Pal)] (Ac-[dPra]WKYF[dLys(N3)][dK](Palmitoyl)-NH2; triazole 1-6),pERK inhibitory effect,pERK in AsPC-1 cells,most inhibitory effects
same,selectivity under spheroid culturing,"[1]; FIG. 2B, spheroid vs adherent culture, AsPC-1 (G12D) vs BxPC-3 (WT)",selectivity persist under spheroid culturing
same,"reduction of cell viability, spheroid compared to adherent conditions","[1]; FIGS. 2A-2B, CellTiter-Glo",more effective at reducing cell viability
CCCCCCCCCCCCCCCC(=O)NCCCC[C@H](NC(=O)[C@@H]1CCCCn2cc(nn2)C[C@H](NC(=O)CN2CCOCC2)C(=O)N[C@H](Cc2c[nH]c3ccccc23)C(=O)N[C@H](CCCCN)C(=O)N[C@H](Cc2ccc(O)cc2)C(=O)N[C@H](Cc2ccc(Cl)cc2)C(=O)N1)C(N)=O [Indi-199] (Morpholinoacetyl-[Pra][dW][dK][dY][dPhe(4-Cl)][Lys(N3)]K(Palmitoyl)-NH2; triazole 1-6),AUC(0-inf),[2]; [5],316 µM·h
same,AUC(0-t),[2]; [5],213 µM·h
same,Cmax,[2]; [5],12 µM
same,Tmax,[2]; [5],6 h
same,half-life,"[2]; in vivo, mouse, 20 mg/kg IP, 4 mg/mL in PBS, terminal elimination phase inadequately defined",13.4 h
same,AUC(0-inf),[2]; [6],403 µM·h
same,AUC(0-t),[2]; [6],402 µM·h
same,Cmax,[2]; [6],252 µM
same,Tmax,[2]; [6],0 h
same,clearance,[2]; [6],0.587 mL/min/kg
same,half-life,[2]; [6],2.72 h
same,Vd,"[2]; in vivo, mouse, 20 mg/kg IV bolus, 4 mg/mL in PBS, read-out: Vdss",0.0976 L/kg
same,AUC(0-t),[2]; [7],0.182 µM·h
same,Cmax,[2]; [7],0.033 µM
same,Tmax,[2]; [7],4 h
same,bioavailability,[2]; [7],0.018%
same,exposure,"[2]; iv and ip administration, FIG. 14",sustained exposure
same,tolerability,[3],well tolerated
Biotin-wky(4-Cl-F)-Lys(Pal),membrane association,[4],demonstrated membrane association
"QNGnfY (QN[Phe(4-guanidino)]Y; also: cyclic, closure not given here, D-amino acids, places not given here)",levels of KRAS (G12D),KRAS (G12D),capable of decreasing or depleting levels of KRAS (G12D)
